The results in this text go back to patent US20230357249A1, “ANDROGEN RECEPTOR PROTEIN DEGRADERS WITH A TRICYCLIC CEREBLON LIGAND” (THE REGENTS OF THE UNIVERSITY OF MICHIGAN, priority 2020, published 2023).

In the test the target is T1, AR protein (Homo sapiens, UniProt P10275).
T1 construct: endogenous in cells; host or cells: VCaP
T1 sequence (P10275 1-920): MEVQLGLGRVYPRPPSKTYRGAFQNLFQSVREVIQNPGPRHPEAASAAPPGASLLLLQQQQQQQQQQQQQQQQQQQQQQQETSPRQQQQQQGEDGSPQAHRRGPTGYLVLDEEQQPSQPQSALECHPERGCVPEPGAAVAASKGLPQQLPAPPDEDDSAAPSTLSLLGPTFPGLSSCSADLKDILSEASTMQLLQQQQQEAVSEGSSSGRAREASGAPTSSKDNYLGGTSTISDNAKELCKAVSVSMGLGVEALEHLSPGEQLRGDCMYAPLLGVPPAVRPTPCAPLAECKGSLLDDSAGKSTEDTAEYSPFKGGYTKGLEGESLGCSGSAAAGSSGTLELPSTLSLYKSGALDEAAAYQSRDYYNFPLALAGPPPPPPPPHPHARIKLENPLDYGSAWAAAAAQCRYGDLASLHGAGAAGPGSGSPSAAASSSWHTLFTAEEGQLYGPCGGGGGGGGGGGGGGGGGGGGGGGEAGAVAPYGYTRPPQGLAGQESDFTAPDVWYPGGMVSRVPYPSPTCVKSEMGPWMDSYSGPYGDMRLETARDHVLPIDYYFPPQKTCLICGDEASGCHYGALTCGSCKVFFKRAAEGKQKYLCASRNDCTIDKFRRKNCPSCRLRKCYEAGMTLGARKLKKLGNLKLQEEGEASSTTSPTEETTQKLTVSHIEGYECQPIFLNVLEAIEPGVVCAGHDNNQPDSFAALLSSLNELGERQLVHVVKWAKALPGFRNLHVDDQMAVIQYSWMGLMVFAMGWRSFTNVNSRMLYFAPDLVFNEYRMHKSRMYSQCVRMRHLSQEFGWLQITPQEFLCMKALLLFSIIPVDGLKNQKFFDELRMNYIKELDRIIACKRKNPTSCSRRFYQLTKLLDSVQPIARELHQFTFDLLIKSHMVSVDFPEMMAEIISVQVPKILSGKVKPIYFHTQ
Nature of the test: AR protein degradation in VCaP cells, Western blotting. To be noted: 24 hr treatment; for percent AR protein degradation at 0.01 µM / AR protein degradation VCap 10 nM: 10 nM; for percent AR protein degradation at 0.1 µM / AR protein degradation VCap 100 nM: 100 nM. The format is cell-based. Also noted: key to AR protein degradation VCap 10 nM / AR protein degradation VCap 100 nM: A: >90% degradation (24 hr treatment); B: >50% degradation but <90% (24 hr treatment); C: >10% degradation but <50% (24 hr treatment); D: No significant degradation (24 hr treatment). How it is done:
The appropriate cell line, e.g., prostate cancer LNCaP, Vcap, or 22RV1 cell line, was treated with Compounds of the Disclosure as indicated. The treated cells were lysed with RIPA buffer. The AR level in the cell lysates was examined by western blotting and a specific AR antibody (ab194196, Abcam, Cambridge, MA 02139) with concentration of 1:20,000. GAPDH was used as a loading control.
Bands were quantified with ImageJ software. The relative numbers of each band obtained from normalization with its corresponding GAPDH level were compared with Prism 8 software. The DC50 values were produced from Prism 8, and the DC90 values were calculated with an equation=Bottom + (Top-Bottom)/(1+10^((LogEC50-X)*HillSlope) based on DC50 and Hillslope values.
The amount of AR protein degradation in VCap and MDA-MB-453 cells caused by representative Compounds of the Disclosure at the concentrations indicated is presented in Table 4, FIG. 1, and FIG. 2.

`N#Cc1ccc(N[C@H]2CC[C@H](NC(=O)c3ccc(N4CCC(N5Cc6cc7c(cc6C5)C(=O)N(C5CCC(=O)NC5=O)C7=O)CC4)cc3)CC2)cc1Cl` (stereo partly drawn) [compound 17] displayed a percent AR protein degradation at 0.01 µM of more than 90% and a percent AR protein degradation at 0.1 µM of more than 90%.

`CN(c1ccc(C#N)c(Cl)c1)[C@H]1CC[C@H](NC(=O)c2ccc([C@H]3CC[C@H](CN4Cc5cc6c(cc5C4)C(=O)N(C4CCC(=O)CC4=O)C6=O)CC3)cc2)CC1` (stereo partly drawn) [compound 280] came in with a percent AR protein degradation at 0.01 µM of more than 90% and a percent AR protein degradation at 0.1 µM of more than 90%.

As for `CN(c1ccc(C#N)c(Cl)c1)[C@H]1CC[C@H](NC(=O)c2ccc(CN3CCC(N4Cc5cc6c(cc5C4)C(=O)N(C4CCC(=O)NC4=O)C6=O)CC3)cc2)CC1` (stereo partly drawn) [compound 278], the percent AR protein degradation at 0.01 µM is more than 90% and the percent AR protein degradation at 0.1 µM was more than 90%.

For `C[C@H]1C[C@@H](NC(=O)c2ccc(N3CCC(N4Cc5cc6c(cc5C4)C(=O)N(C4CCC(=O)NC4=O)C6=O)CC3)cc2)CC[C@@H]1Oc1ccc(C#N)c(Cl)c1` (stereo partly drawn) [compound 16], the percent AR protein degradation at 0.01 µM is more than 90% and the percent AR protein degradation at 0.1 µM is more than 90%.

`N#Cc1ccc(O[C@H]2CC[C@H](NC(=O)c3ccc(N4CCC(CN5Cc6cc7c(cc6C5)C(=O)N(C5CCC(=O)NC5=O)C7=O)CC4)cc3)CC2)cc1Cl` (stereo partly drawn) [compound 8, N-((1r,4r)-4-(3-chloro-4-cyanophenoxy)cyclohexyl)-4-(4-((6-(2,6-dioxopiperidin-3-yl)-5,7-dioxo-3,5,6,7-tetrahydropyrrolo[3,4-f]isoindol-2(1H)-yl)methyl)piperidin-1-yl)benzamide] showed a percent AR protein degradation at 0.01 µM of more than 90% and a percent AR protein degradation at 0.1 µM of more than 90%.

As to `N#Cc1ccc(N2CC[C@H]3C[C@H](NC(=O)c4ccc(N5CCC(CN6Cc7cc8c(cc7C6)C(=O)N(C6CCC(=O)NC6=O)C8=O)CC5)cc4)CC[C@H]32)cc1Cl` (stereo partly drawn) [compound 26], the percent AR protein degradation at 0.01 µM was 10 to 50% and the percent AR protein degradation at 0.1 µM was 50 to 90%.

As to `C[C@@H]1CCN(C(=O)c2ccc(N3CCC(CN4Cc5cc6c(cc5C4)C(=O)N(C4CCC(=O)NC4=O)C6=O)CC3)cc2)C[C@H]1Oc1ccc(C#N)c(Cl)c1` (stereo partly drawn) [compound 121], the “AR protein degradation VCap 10 nM” value is “D” and the “AR protein degradation VCap 100 nM” value is reported as “D”.

The compound `C[C@H]1CCN(c2ccc(C(=O)N3CCC(CN4Cc5cc6c(cc5C4)C(=O)N(C4CCC(=O)NC4=O)C6=O)CC3)cc2)CCN1c1ccc(C#N)c(Cl)c1` (stereo partly drawn) [compound 120] yielded a percent AR protein degradation at 0.01 µM of 50 to 90% and a percent AR protein degradation at 0.1 µM of 50 to 90%.

`N#Cc1ccc(O[C@H]2CC[C@H](N3Cc4cc(C(=O)N5CCC(CN6Cc7cc8c(cc7C6)C(=O)N(C6CCC(=O)NC6=O)C8=O)CC5)ccc4C3=O)CC2)cc1Cl` (stereo partly drawn) [compound 174]: the “AR protein degradation VCap 10 nM” value is listed as “D” and the percent AR protein degradation at 0.1 µM was more than 90%.

In the case of `N#Cc1ccc(O[C@H]2CC[C@H](Oc3ccc(C(=O)N4CCC(CN5Cc6cc7c(cc6C5)C(=O)N(C5CCC(=O)NC5=O)C7=O)CC4)cc3)CC2)cc1Cl` (stereo partly drawn) [compound 12], the “AR protein degradation VCap 10 nM” value is on record as “D” and the “AR protein degradation VCap 100 nM” value was “D”.

As for `C[C@H]1CCN(c2ccc(C(=O)N3CCC(N4Cc5cc6c(cc5C4)C(=O)N(C4CCC(=O)NC4=O)C6=O)CC3)cc2)CCN1c1ccc(C#N)c(Cl)c1` (stereo partly drawn) [compound 119], the percent AR protein degradation at 0.01 µM fell in the range of 50 to 90% and the percent AR protein degradation at 0.1 µM fell in the range of 50 to 90%.

`C[C@H]1C[C@H](NC(=O)c2ccc(N3CCC(N4Cc5cc6c(cc5C4)C(=O)N(C4CCC(=O)NC4=O)C6=O)CC3)cc2)CC[C@H]1Oc1ccc(C#N)c(Cl)c1` (stereo partly drawn) [compound 13] came in with a percent AR protein degradation at 0.01 µM of more than 90% and a percent AR protein degradation at 0.1 µM of more than 90%.

In turn, `N#Cc1ccc(O[C@H]2CC[C@H](N3Cc4cc(C(=O)N5CCC(N6Cc7cc8c(cc7C6)C(=O)N(C6CCC(=O)NC6=O)C8=O)CC5)ccc4C3=O)CC2)cc1Cl` (stereo partly drawn) [compound 173] displayed a percent AR protein degradation at 0.01 µM of 10 to 50% and a percent AR protein degradation at 0.1 µM of more than 90%.

In the case of `CC1(C)[C@H](Oc2ccc(C#N)c(Cl)c2)C(C)(C)[C@H]1N1Cc2cc(C(=O)N3CCC(CN4Cc5cc6c(cc5C4)C(=O)N(C4CCC(=O)NC4=O)C6=O)CC3)ccc2C1=O` (stereo partly drawn) [compound 6], the percent AR protein degradation at 0.01 µM was in the range of 10 to 50% and the percent AR protein degradation at 0.1 µM is 10 to 50%.

In turn, `N#Cc1ccc(O[C@H]2CC[C@H](NC(=O)c3ccc4c(c3)CCN(CC(=O)N3CCc5cc6c(cc5C3)C(=O)N(C3CCC(=O)NC3=O)C6=O)C4)CC2)cc1Cl` (stereo partly drawn) [compound 28] registered a percent AR protein degradation at 0.01 µM of 50 to 90% and a percent AR protein degradation at 0.1 µM of 50 to 90%.

For `CN(c1ccc(C#N)c(Cl)c1)[C@H]1CC[C@H](NC(=O)c2ccc(N3CC(CN4Cc5cc6c(cc5C4)C(=O)N(C4CCC(=O)NC4=O)C6=O)C3)cc2)CC1` (stereo partly drawn) [compound 23], the percent AR protein degradation at 0.01 µM was more than 90% and the percent AR protein degradation at 0.1 µM was more than 90%.

Turning to `N#Cc1ccc(O[C@H]2CC[C@H](NC(=O)c3ccc4c(c3)CCN(C(=O)CN3Cc5cc6c(cc5C3)C(=O)N(C3CCC(=O)NC3=O)C6=O)CC4)CC2)cc1Cl` (stereo partly drawn) [compound 25], the percent AR protein degradation at 0.01 µM was more than 90% and the percent AR protein degradation at 0.1 µM is more than 90%.

In turn, `N#Cc1ccc(N[C@H]2CC[C@H](NC(=O)c3ccc(N4CC(CN5Cc6cc7c(cc6C5)C(=O)N(C5CCC(=O)NC5=O)C7=O)C4)cc3)CC2)cc1Cl` (stereo partly drawn) [compound 22] returned a percent AR protein degradation at 0.01 µM of 50 to 90% and a percent AR protein degradation at 0.1 µM of more than 90%.

With `N#Cc1ccc(OC2CC3(CC(NC(=O)c4ccc(N5CCC(CN6Cc7cc8c(cc7C6)C(=O)N(C6CCC(=O)NC6=O)C8=O)CC5)cc4)C3)C2)cc1Cl` (stereo not drawn) [compound 124], the “AR protein degradation VCap 10 nM” value is listed as “D” and the percent AR protein degradation at 0.1 µM lay within 50 to 90%.

On to `CN(c1ccc(C#N)c(Cl)c1)[C@H]1CC[C@H](NC(=O)c2ccc(O[C@H]3CC[C@H](N4Cc5cc6c(cc5C4)C(=O)N(C4CCC(=O)NC4=O)C6=O)CC3)cc2)CC1` (stereo partly drawn) [compound 281, N-((1r,4r)-4-((3-Chloro-4-Cyanophenyl)(Methyl)Amino)Cyclohexyl)-4-(((1r,4r)-4-(6-(2,6-Dioxopiperidin-3-Yl)-5,7-Dioxo-3,5,6,7-Tetrahydropyrrolo[3,4-F]Isoindol-2(1h)-Yl)Cyclohexyl)Oxy)Benzamide], for which the percent AR protein degradation at 0.01 µM is more than 90% and the percent AR protein degradation at 0.1 µM was more than 90%.

For the compound `N#Cc1ccc(OC2CC3(CCC(NC(=O)c4ccc(N5CCC(CN6Cc7cc8c(cc7C6)C(=O)N(C6CCC(=O)NC6=O)C8=O)CC5)cc4)CC3)C2)cc1Cl` (stereo not drawn) [compound 126], the “AR protein degradation VCap 10 nM” value is reported as “D” and the percent AR protein degradation at 0.1 µM lay in the range of 10 to 50%.

On to `N#Cc1ccc(OC2CCN(C(=O)Nc3ccc(C(=O)N4CCC(CN5Cc6cc7c(cc6C5)C(=O)N(C5CCC(=O)NC5=O)C7=O)CC4)cc3)CC2)cc1Cl` (stereo not drawn) [compound 132], for which the “AR protein degradation VCap 10 nM” value is listed as “D” and the “AR protein degradation VCap 100 nM” value was “D”.

`N#Cc1ccc(OC2CCN(C(=O)Oc3ccc(C(=O)N4CCC(CN5Cc6cc7c(cc6C5)C(=O)N(C5CCC(=O)NC5=O)C7=O)CC4)cc3)CC2)cc1Cl` (stereo not drawn) [compound 131]: the “AR protein degradation VCap 10 nM” value is “D” and the percent AR protein degradation at 0.1 µM lay within 10 to 50%.

Take `CN(c1ccc(C#N)c(Cl)c1)[C@H]1CC[C@H](NC(=O)c2ccc(C3CCN(CC(=O)N4Cc5cc6c(cc5C4)C(=O)N(C4CCC(=O)NC4=O)C6)CC3)cc2)CC1` (stereo partly drawn) [compound 328, N-((1r,4r)-4-((3-Chloro-4-Cyanophenyl)(Methyl)Amino)Cyclohexyl)-4-(1-(2-(6-(2,6-Dioxopiperidin-3-Yl)-5-Oxo-3,5,6,7-Tetrahydropyrrolo[3,4-F]Isoindol-2(1h)-Yl)-2-Oxoethyl)Piperidin-4-Yl)Benzamide]: the percent AR protein degradation at 0.01 µM was more than 90% and the percent AR protein degradation at 0.1 µM was more than 90%.
